Measurements as given in patent publication US20230372361A1, “USE OF OXYGENATED CHOLESTEROL SULFATES FOR TREATING INFLAMMATORY CONDITIONS” (Durect Corporation, priority 2020, published 2023).
Read-outs that look alike come from different tables or passages of the source.

Key:
[1] = set-up: species or system rats; conditions: Sprague Dawley, rat, in vivo, po, 75 mg/kg
[2] = set-up: species or system rats; conditions: rat, in vivo, po, 75 mg/kg
Method: The terminal elimination phase T1/2 was 27.3 hours.

[3] = Excretion mass balance, single intravenous dose; type: in vivo, male Sprague Dawley rats; conditions: iv 10 mg/kg; over 168 hours
Method: Nine male Sprague Dawley rats (Group 1) were designated for the pharmacokinetic phase, 3 male Sprague Dawley rats (Group 2) for the excretion mass balance phase, and 7 male Sprague Dawley rats (Group 3) and 9 male Long Evans rats (Group 4) for the tissue distribution phase. All animals received a single intravenous dose of [^14C]-25HC3S at 10 mg/kg and a target radioactivity of 225 μCi/kg. Blood samples were collected from all Group 1 animals at approximately 0.083, 0.25, 0.5, 1, 2, 4, 8, 12, 24, 48, and 72 hours post-dose. Urine and feces were collected from all Group 2 animals periodically through 168 hours post-dose. […] Following blood collection, animals were euthanized by CO2 inhalation and carcasses frozen in a dry ice/hexane bath for processing by quantitative whole body autoradiography. Whole blood, plasma, urine, feces, cage rinse, and cage wash were analyzed for total radioactivity by liquid scintillation counting.

[4] = tested on: Huh-7 cells; experiment: Real-time RT-PCR of key gene expression; type: cell-based, human; conditions: 6.25-50 μM, 1-8 hours
Method: FIGS. 3A-3D. Expression of key genes related to signaling pathways. […] Key Genes and their targeting genes expression were determined by RT-PCR analysis. […] Each sample, 2 was sent to […], Inc. (Hopkinton, MA) for analysis of global methylation bisulfite sequencing. The same samples, 6 μg, were sent to Novogene Co., Ltd (Tianjin, China) for analysis of whole genome bisulfite sequencing (WGBS). Total RNA was isolated using the Promega SV total RNA isolation system (Madison, WI) with DNase treatment. […] Real-time RT-PCR was performed using SYBR Green as the indicator on ABI 7500 Fast Real-Time PCR System (Applied Biosystems, Foster City, CA). Amplifications of β-actin or GAPDH were used as internal controls. Relative messenger RNA (mRNA) expression was quantified with the comparative cycle threshold (Ct) method using the primer set shown in Table 1.1 and was expressed as 2^-ΔΔct.

[5] = tested on: Huh-7 cells; experiment: Whole genome bisulfite sequencing (WGBS), promoter 5mCpG demethylation; type: cell-based, human; conditions: 25 μM, 4 hours
Method: Huh-7 and HepG-2 cells were cultured in DMEM media supplemented with 10% heat-inactivated fetal bovine serum (FBS), high glucose (HG, 4.5 g/L) at 37° C. in a humidified atmosphere of 5% CO2.
Each sample, 2 was sent to EpigenDx, Inc. (Hopkinton, MA) for analysis of global methylation bisulfite sequencing. The same samples, 6 μg, were sent to Novogene Co., Ltd (Tianjin, China) for analysis of whole genome bisulfite sequencing (WGBS). Total RNA was isolated using the Promega SV total RNA isolation system (Madison, WI) with DNase treatment. Each sample, 2 was used for the first-strand cDNA synthesis as recommended by the manufacturer (Invitrogen, Carlsbad, CA). […] Relative messenger RNA (mRNA) expression was quantified with the comparative cycle threshold (Ct) method using the primer set shown in Table 1.1 and was expressed as 2^−ΔΔct.
Analysis of Whole Human Genome Bisulfite Sequencing (WGBS) Each sample, 5.2 μg of genomic DNA spiked with 26 ng lambda DNA, was fragmented by sonication to 200-300 bp with Covaris S220, followed by end repair and adenylation. […] These DNA fragments were treated twice with bisulfite using EZ DNA Methylation-Gold™ Kit (Zymo Research) before the resulting single-strand DNA fragments were PCR amplified using KAPA HiFi Hot Start Uracil and Ready Mix (2×). […]

[6] = tested on: Huh-7 cells; experiment: Global methylation, LINE-1 assay (pyrosequencing); type: cell-based, human; conditions: HG media, 25HC3S for 4 hours
Method: Each sample, 2 was sent to […], Inc. (Hopkinton, MA) for analysis of global methylation bisulfite sequencing. The same samples, 6 μg, were sent to Novogene Co., Ltd (Tianjin, China) for analysis of whole genome bisulfite sequencing (WGBS). Total RNA was isolated using the Promega SV total RNA isolation system (Madison, WI) with DNase treatment. […] Real-time RT-PCR was performed using SYBR Green as the indicator on ABI 7500 Fast Real-Time PCR System (Applied Biosystems, Foster City, CA). Amplifications of β-actin or GAPDH were used as internal controls. Relative messenger RNA (mRNA) expression was quantified with the comparative cycle threshold (Ct) method using the primer set shown in Table 1.1 and was expressed as 2^-ΔΔct. […] PCR reaction and product purification were performed as per the manufacturer's protocol (GE Healthcare Life Sciences). The PCR products, 10 μl, were sequenced by Pyrosequencing on the PSQ96 HS System following the manufacturer's instructions (Pyrosequencing, Qiagen). The methylation status of each CpG site was determined individually as an artificial C/T SNP using QCpG software (Pyrosequencing, Qiagen). The methylation level at each CpG site was calculated as the percentage of the methylated alleles divided by the sum of all methylated and unmethylated alleles. The mean methylation level was calculated using methylation levels of all measured CpG sites within the targeted region of each gene. Each experiment included non-CpG cytosines as internal controls to detect incomplete bisulfite conversion of the input DNA. In addition, a series of unmethylated and methylated DNA were included as controls in each PCR assay. Furthermore, PCR bias testing was performed by mixing unmethylated control DNA with in vitro methylated DNA at different ratios (0%, 5%, 10%, 25%, 50%, 75%, and 100%), followed by bisulfite modification, PCR, and Pyro-sequencing analysis.

dose recovered in urine, feces, and cage rinse [1]: approximately 94.5 % of the dose
plasma Cmax [2]: 3800 ng equiv./g
dose recovered in urine, feces, and cage rinse [3]: approximately 100.2 % of the dose
recovered radioactivity in feces [3]: 83.0%
Structure (SMILES): C[C@H](CCCC(C)(C)O)[C@H]1CC[C@H]2[C@@H]3CC=C4C[C@@H](OS(=O)(=O)O)CC[C@]4(C)[C@H]3CC[C@]12C [25HC3S, 25-hydroxycholesterol-3-sulfate]
decrease of FAS gene expression [4]: ~90%
decrease of HMGR gene expression [4]: ~90%
increase of CREB5 expression [4]: up to 20 fold
increase of DUSP8 expression [4]: 5 fold
increase of PGC1A expression [4]: 12 fold
hypomethylation levels across genomic functional regions versus vehicle [5]: significantly higher hypomethylation levels than vehicle
Reduction of methylation (demethylation) at LINE-1 Pos1 [6]: −5%
Reduction of methylation (demethylation) at LINE-1 Pos3 [6]: −10%
Reduction of methylation (demethylation) at LINE-1 Pos 4 [6]: −5.6%
